# Experimental data reported in article PMC12752606, “METTL10‐Mediated PIAS3 Methylation Links Purine Metabolism to Gastric Cancer Progression” (Advanced Science, 2025).
# Assays:
# [1] = target: METTL3/14 (Homo sapiens, UniProt Q86U44); assay: Off-target methyltransferase profiling (MTase-Glo); format: biochemical
# Protocol: (§1) To evaluate the off‐target effects of LZQ‐02‐023‐01 on methyltransferase activity, a panel of enzymes was assessed using the MTase‐Glo Methyltransferase Assay (Promega), following the manufacturer's instructions. The assay was performed by ICE Bioscience Inc. Briefly, LZQ‐02‐023‐01 was serially diluted 4‐fold in DMSO to generate a 10‐point concentration gradient, and the resulting solutions were dispensed into 384‐well white assay plates using an Echo acoustic liquid handler (Labcyte). Plates were centrifuged at 1000 rpm for 1 min to ensure even compound distribution. Following a 10‐min preincubation at 25 °C, 2 µL of a substrate solution containing S‐adenosylmethionine (SAM) and the specific methyltransferase substrate (Table S7, Supporting Information) was added to each well. After a brief centrifugation, plates were incubated at 25 °C for 180 min to allow the enzymatic methylation reaction to proceed. Subsequently, 1 µL of MTase‐Glo reagent was added, followed by centrifugation and incubation at 25 °C for 45 min. Then, 5 µL of MTase‐Glo detection solution was introduced into each well, and the plates were incubated for an additional 45 min at 25 °C after centrifugation.
# (§2) Luminescence signals were directly proportional to methyltransferase activity, were recorded using a microplate reader (BMG LABTECH). Percent inhibition was calculated by normalizing luminescence intensities of compound‐treated wells to DMSO‐treated controls, and IC50 values were calculated using GraphPad Prism 8 software.
# [2] = target: DNMT1 (Homo sapiens, UniProt P26358); assay: Off-target methyltransferase profiling (MTase-Glo); format: biochemical
# Protocol: as §1, §2
# [3] = target: SETD2 (Homo sapiens, UniProt Q9BYW2); assay: Off-target methyltransferase profiling (MTase-Glo); format: biochemical
# Protocol: as §1, §2
# [4] = target: GLP (Homo sapiens, UniProt Q9H9B1); assay: Off-target methyltransferase profiling (MTase-Glo); format: biochemical
# Protocol: as §1, §2
# [5] = target: PRMT5 (Homo sapiens, UniProt O14744); assay: Off-target methyltransferase profiling (MTase-Glo); format: biochemical
# Protocol: as §1, §2
# [6] = target: NSD1 (Homo sapiens, UniProt Q96L73); assay: Off-target methyltransferase profiling (MTase-Glo); format: biochemical
# Protocol: as §1, §2
# [7] = target: SUV39H2 (Homo sapiens, UniProt Q9H5I1); assay: Off-target methyltransferase profiling (MTase-Glo); format: biochemical
# Protocol: as §1, §2
# [8] = target: PRMT5+MTA (Homo sapiens, UniProt O14744); assay: Off-target methyltransferase profiling (MTase-Glo); format: biochemical
# Protocol: as §1, §2
# [9] = target: EZH2 [Y641H] (Homo sapiens, UniProt Q15910, Y641H); assay: Off-target methyltransferase profiling (MTase-Glo); format: biochemical
# Protocol: as §1, §2
# [10] = target: SETD1B (Homo sapiens, UniProt Q9UPS6); assay: Off-target methyltransferase profiling (MTase-Glo); format: biochemical
# Protocol: as §1, §2
# [11] = target: DOT1L (Homo sapiens, UniProt Q8TEK3); assay: Off-target methyltransferase profiling (MTase-Glo); format: biochemical
# Protocol: as §1, §2
# [12] = target: PRMT6 (Homo sapiens, UniProt Q96LA8); assay: Off-target methyltransferase profiling (MTase-Glo); format: biochemical
# Protocol: as §1, §2
# [13] = target: EZH2 [Y641N] (Homo sapiens, UniProt Q15910, Y641N); assay: Off-target methyltransferase profiling (MTase-Glo); format: biochemical
# Protocol: as §1, §2
# [14] = target: NSD2 (Homo sapiens, UniProt O96028); assay: Off-target methyltransferase profiling (MTase-Glo); format: biochemical
# Protocol: as §1, §2
# [15] = target: G9A (Homo sapiens, UniProt Q96KQ7); assay: Off-target methyltransferase profiling (MTase-Glo); format: biochemical
# Protocol: as §1, §2
# [16] = target: SUV39H1 (Homo sapiens, UniProt O43463); assay: Off-target methyltransferase profiling (MTase-Glo); format: biochemical
# Protocol: as §1, §2
# [17] = target: NSD3 (Homo sapiens, UniProt Q9BZ95); assay: Off-target methyltransferase profiling (MTase-Glo); format: biochemical
# Protocol: as §1, §2
# [18] = target: EZH2 (Homo sapiens, UniProt Q15910); assay: Off-target methyltransferase profiling (MTase-Glo); format: biochemical
# Protocol: as §1, §2
# [19] = target: SUV420H1 (Homo sapiens, UniProt Q4FZB7); assay: Off-target methyltransferase profiling (MTase-Glo); format: biochemical
# Protocol: as §1, §2
# [20] = target: SETD1A (Homo sapiens, UniProt O15047); assay: Off-target methyltransferase profiling (MTase-Glo); format: biochemical
# Protocol: as §1, §2
# [21] = target: PRMT4 (Homo sapiens, UniProt Q86X55); assay: Off-target methyltransferase profiling (MTase-Glo); format: biochemical
# Protocol: as §1, §2
# [22] = target: PRMT8 (Homo sapiens, UniProt Q9NR22); assay: Off-target methyltransferase profiling (MTase-Glo); format: biochemical
# Protocol: as §1, §2
# [23] = target: MLL3 (Homo sapiens, UniProt Q8NEZ4); assay: Off-target methyltransferase profiling (MTase-Glo); format: biochemical
# Protocol: as §1, §2
# [24] = target: EZH2 [A677G] (Homo sapiens, UniProt Q15910, A677G); assay: Off-target methyltransferase profiling (MTase-Glo); format: biochemical
# Protocol: as §1, §2
# [25] = target: SMYD2 (Homo sapiens, UniProt Q9NRG4); assay: Off-target methyltransferase profiling (MTase-Glo); format: biochemical
# Protocol: as §1, §2
# [26] = target: PRMT1 (Homo sapiens, UniProt Q99873); assay: Off-target methyltransferase profiling (MTase-Glo); format: biochemical
# Protocol: as §1, §2
# [27] = tested on: MKN45 and AGS cells; assay: Colony formation assay; format: cell-based; details: 10 and 20 µM
# Protocol: Cells (1000 cells/well) were seeded in six‐well plates and provided with fresh culture medium every 3 days. After 14 days of incubation, the medium was removed, and the cells were gently washed three times with room‐temperature PBS. The cells were then fixed with 1 mL of 4% paraformaldehyde per well for 15 min. Next, 1 mL of 0.1% crystal violet solution was added to each well and incubated for 10 min to stain the cells. The crystal violet solution was drained, and the wells were rinsed with running water to remove excess stain, followed by air drying and photography.
# Sequence of SUV39H1 (O43463 whole entry, species assumed): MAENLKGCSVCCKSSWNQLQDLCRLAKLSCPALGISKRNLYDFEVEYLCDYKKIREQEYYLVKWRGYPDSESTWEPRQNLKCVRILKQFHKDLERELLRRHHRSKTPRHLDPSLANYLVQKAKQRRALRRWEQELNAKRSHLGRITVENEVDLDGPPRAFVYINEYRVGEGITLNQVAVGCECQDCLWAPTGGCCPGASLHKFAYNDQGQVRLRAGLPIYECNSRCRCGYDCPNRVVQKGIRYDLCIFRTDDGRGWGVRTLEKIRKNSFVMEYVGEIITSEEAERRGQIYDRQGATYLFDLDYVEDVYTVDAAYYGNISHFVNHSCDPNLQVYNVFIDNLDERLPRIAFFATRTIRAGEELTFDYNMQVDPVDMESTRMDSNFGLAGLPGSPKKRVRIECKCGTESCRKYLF
# Sequence of EZH2 [Y641H] (Q15910 whole entry Y641H): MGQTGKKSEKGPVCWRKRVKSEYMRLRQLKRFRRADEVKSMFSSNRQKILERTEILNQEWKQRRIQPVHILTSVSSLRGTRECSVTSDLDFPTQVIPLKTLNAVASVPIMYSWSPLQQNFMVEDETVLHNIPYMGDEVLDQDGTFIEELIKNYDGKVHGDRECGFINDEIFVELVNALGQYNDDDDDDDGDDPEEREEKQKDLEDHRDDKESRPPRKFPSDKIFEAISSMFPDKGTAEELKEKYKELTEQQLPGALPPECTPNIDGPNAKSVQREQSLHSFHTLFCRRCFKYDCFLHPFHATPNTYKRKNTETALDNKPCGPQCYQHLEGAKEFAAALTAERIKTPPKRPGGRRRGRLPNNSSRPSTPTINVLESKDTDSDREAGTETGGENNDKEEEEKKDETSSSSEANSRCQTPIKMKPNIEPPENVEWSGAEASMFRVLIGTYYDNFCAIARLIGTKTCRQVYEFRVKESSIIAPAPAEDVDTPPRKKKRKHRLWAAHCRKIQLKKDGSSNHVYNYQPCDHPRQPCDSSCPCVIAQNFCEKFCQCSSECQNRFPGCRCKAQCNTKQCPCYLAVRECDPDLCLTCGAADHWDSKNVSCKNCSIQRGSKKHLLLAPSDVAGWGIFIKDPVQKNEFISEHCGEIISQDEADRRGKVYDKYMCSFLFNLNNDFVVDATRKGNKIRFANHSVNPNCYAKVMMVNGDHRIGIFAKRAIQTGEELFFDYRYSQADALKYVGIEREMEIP
# Sequence of EZH2 [Y641H] (O75530 whole entry partner): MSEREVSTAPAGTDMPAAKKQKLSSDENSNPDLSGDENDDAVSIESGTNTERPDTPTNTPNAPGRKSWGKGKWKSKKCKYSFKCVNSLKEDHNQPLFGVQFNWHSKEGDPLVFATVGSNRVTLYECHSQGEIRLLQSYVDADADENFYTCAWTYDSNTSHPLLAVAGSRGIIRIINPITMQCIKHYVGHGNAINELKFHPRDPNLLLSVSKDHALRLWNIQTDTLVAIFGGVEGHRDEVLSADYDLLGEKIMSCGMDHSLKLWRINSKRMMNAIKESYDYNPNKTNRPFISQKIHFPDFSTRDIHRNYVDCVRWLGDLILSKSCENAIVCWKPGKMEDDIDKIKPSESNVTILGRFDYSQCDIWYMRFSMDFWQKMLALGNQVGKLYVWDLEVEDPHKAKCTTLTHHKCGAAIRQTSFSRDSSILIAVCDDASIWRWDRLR
# Sequence of EZH2 [Y641H] (Q15022 whole entry partner): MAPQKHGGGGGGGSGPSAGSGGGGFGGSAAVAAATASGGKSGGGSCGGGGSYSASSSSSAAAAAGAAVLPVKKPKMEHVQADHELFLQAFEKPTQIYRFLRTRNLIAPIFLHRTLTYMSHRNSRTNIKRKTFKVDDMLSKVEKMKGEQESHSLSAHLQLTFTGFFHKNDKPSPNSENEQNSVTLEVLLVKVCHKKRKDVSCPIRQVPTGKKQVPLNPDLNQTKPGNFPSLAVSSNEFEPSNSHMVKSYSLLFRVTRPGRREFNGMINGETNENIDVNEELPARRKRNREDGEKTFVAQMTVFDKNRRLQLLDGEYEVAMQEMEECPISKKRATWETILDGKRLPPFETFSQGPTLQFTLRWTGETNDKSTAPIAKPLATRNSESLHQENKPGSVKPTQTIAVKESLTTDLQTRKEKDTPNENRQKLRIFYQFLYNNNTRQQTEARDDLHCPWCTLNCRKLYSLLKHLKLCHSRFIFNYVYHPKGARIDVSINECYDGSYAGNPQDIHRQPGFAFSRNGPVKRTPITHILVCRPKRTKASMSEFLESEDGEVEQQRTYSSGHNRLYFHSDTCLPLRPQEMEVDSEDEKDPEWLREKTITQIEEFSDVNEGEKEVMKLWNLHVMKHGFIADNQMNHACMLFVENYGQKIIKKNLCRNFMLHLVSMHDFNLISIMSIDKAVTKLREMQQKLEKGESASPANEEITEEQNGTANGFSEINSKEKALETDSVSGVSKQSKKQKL
# Sequence of EZH2 [Y641H] (Q09028 whole entry partner): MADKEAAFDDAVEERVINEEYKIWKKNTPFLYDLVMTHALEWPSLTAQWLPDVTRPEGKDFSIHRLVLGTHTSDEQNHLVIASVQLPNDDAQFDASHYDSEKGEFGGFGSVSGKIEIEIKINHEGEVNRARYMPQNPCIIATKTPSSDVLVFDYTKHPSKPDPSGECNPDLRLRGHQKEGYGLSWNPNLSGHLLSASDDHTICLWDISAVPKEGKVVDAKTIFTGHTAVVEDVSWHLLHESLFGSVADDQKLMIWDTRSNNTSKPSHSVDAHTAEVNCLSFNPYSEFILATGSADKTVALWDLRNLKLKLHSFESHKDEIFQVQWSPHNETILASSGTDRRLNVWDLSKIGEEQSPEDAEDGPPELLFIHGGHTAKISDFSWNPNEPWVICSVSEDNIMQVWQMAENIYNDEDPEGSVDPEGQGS
# Sequence of SMYD2 (Q9NRG4 whole entry, species assumed): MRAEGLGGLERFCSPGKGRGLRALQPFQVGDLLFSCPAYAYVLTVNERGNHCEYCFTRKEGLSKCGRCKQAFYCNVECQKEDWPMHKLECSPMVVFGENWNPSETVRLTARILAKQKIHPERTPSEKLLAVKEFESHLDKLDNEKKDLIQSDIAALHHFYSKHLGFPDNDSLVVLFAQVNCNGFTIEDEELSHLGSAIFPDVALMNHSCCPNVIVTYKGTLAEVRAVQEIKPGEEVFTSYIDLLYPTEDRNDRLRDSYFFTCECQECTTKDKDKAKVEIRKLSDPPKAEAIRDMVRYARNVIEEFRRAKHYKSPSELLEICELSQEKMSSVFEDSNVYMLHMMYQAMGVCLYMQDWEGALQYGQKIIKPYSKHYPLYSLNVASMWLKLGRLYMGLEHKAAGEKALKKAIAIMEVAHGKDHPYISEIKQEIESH
# Sequence of PRMT8 (Q9NR22 whole entry, species assumed): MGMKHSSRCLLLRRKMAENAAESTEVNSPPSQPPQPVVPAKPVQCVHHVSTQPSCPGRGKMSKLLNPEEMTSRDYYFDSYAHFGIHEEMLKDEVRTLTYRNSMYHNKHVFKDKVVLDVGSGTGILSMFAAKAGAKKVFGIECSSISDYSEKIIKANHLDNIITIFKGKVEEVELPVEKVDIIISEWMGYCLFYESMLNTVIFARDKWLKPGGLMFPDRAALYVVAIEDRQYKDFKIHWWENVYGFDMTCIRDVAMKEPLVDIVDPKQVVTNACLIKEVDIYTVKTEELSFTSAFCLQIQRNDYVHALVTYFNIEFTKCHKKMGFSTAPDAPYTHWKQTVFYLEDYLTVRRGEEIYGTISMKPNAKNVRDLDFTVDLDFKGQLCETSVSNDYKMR
# Sequence of PRMT6 (Q96LA8 whole entry, species assumed): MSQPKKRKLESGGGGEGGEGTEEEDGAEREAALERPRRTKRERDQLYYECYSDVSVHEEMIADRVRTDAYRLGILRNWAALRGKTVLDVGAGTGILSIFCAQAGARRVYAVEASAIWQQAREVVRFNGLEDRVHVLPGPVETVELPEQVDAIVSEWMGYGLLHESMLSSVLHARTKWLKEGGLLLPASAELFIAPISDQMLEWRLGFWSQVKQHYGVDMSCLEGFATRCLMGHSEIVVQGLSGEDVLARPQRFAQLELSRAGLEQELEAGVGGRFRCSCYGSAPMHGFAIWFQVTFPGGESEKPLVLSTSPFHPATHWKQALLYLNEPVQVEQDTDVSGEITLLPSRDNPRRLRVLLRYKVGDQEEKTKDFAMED
# Sequence of PRMT1 (Q99873 whole entry, species assumed): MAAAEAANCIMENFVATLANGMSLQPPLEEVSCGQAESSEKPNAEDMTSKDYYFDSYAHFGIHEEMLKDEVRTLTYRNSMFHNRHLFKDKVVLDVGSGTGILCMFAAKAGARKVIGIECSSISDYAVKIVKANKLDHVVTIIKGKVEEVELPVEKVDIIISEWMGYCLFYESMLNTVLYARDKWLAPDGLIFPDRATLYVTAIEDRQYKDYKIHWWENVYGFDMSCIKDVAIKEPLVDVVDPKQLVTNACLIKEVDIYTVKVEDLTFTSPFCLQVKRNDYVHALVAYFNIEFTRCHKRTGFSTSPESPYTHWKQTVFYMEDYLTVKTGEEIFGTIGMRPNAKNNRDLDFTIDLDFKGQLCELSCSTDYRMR
# Sequence of SUV39H2 (Q9H5I1 whole entry, species assumed): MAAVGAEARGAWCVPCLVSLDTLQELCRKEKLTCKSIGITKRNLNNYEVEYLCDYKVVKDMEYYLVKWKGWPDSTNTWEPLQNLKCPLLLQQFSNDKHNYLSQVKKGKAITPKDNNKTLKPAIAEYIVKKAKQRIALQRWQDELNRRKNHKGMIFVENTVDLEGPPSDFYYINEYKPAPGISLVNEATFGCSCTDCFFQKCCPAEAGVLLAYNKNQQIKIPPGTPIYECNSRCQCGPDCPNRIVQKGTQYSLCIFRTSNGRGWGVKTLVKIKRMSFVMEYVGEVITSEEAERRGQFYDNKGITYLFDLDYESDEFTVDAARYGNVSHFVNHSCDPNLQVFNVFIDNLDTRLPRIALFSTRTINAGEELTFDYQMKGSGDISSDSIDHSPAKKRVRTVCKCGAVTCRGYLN
compound,measurement,setting,value
"Cc1ccc(Nc2ncc3c(n2)N(C)C(=O)N(c2cccc(N)c2)C3)cn1 [LZQ-02-023-01, Three‐(3‐aminophenyl)‐1‐methyl‐7‐((6‐methylpyridin‐3‐yl)amino)‐3,4‐dihydropyrimido [4,5‐d] pyrimidin‐2 (1H)‐one]",IC50,[1],16.8 µM
same,IC50,[2],23.8 µM
same,IC50,[3],18.6 µM
same,IC50,[4],23.9 µM
same,IC50,[5],13 µM
same,IC50,[6],13.3 µM
same,IC50,[7],11 µM
same,IC50,[8],13.9 µM
same,IC50,[9],3.46 µM
same,IC50,[10],8.97 µM
same,IC50,[11],13.1 µM
same,IC50,[12],11 µM
same,IC50,[13],12.4 µM
same,IC50,[14],9.53 µM
same,IC50,[15],39.1 µM
same,IC50,[16],18.6 µM
same,IC50,[17],7.36 µM
same,IC50,[18],14.7 µM
same,IC50,[19],13.3 µM
same,IC50,[20],18.8 µM
same,IC50,[21],19.2 µM
same,IC50,[22],26.9 µM
same,IC50,[23],9.47 µM
same,IC50,[24],13.7 µM
same,IC50,[25],9.07 µM
same,IC50,[26],19.7 µM
same,GC cell proliferation (colony formation),[27],significantly inhibited
